Results reported in the supplement of paper PMC10307832.

Key:
Assay in all cases: relative viability (nuclei count vs DMSO), 5 days (fraction); higher = more cells survive
TGX 221 + Phenformin = compound: CC1=CN2C(=O)C=C(N=C2C(=C1)C(C)NC3=CC=CC=C3)N4CCOCC4 [TGX 221] + N=C(N)NC(=N)NCCc1ccccc1 [Phenformin] (partner 250 µM)
In short: (§1)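 Medians of duplicate plates are given as relative viability. That measure is the nuclei count in treated wells divided by the count in vehicle wells. Counts were taken on 4× images of lung cancer cell lines in 1536-well plates, 5 days after pin-tool dosing the day after seeding with one drug alone or a fixed anchor-drug dose plus five library-drug doses (not always all listed) in √10 steps.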

TGX 221 + Olaparib = compound: CC1=CN2C(=O)C=C(N=C2C(=C1)C(C)NC3=CC=CC=C3)N4CCOCC4 [TGX 221] + O=C(c1cc(Cc2n[nH]c(=O)c3ccccc23)ccc1F)N1CCN(C(=O)C2CC2)CC1 [Olaparib] (partner 8 µM)
In short: as §1

[1] = compound: C1=CC=C(C(=C1)C2=CC=C(C=C2)C3=CSC4=C3C(=C(C(=O)N4)C#N)O)O + CS(=O)(=O)N1CCN(Cc2cc3nc(-c4cccc5[nH]ncc45)nc(N4CCOCC4)c3s2)CC1 [Pictilisib] (partner 1 µM)
In short: as §1

[2] = compound: O=C(CCCCCCNC(=O)c1cnc(N(c2ccccc2)c2ccccc2)nc1)NO [Ricolinostat] + C[C@@H](Oc1cc(-c2cnn(C3CCNCC3)c2)cnc1N)c1c(Cl)ccc(F)c1Cl [Crizotinib] (partner 1 µM)
In short: as §1

Cell Line	relative viability (TGX 221 + Phenformin; first compound 0.08 µM)	relative viability (TGX 221 + Phenformin; first compound 0.253 µM)	relative viability (TGX 221 + Phenformin; first compound 0.8 µM)	relative viability (TGX 221 + Phenformin; first compound 2.53 µM)	relative viability (TGX 221 + Phenformin; first compound 8 µM)	relative viability (TGX 221 + Olaparib; first compound 0.08 µM)	relative viability (TGX 221 + Olaparib; first compound 0.253 µM)	relative viability (TGX 221 + Olaparib; first compound 0.8 µM)	relative viability (TGX 221 + Olaparib; first compound 2.53 µM)	relative viability (TGX 221 + Olaparib; first compound 8 µM)	relative viability ([1]; first compound 0.08 µM)	relative viability ([1]; first compound 0.253 µM)	relative viability ([1]; first compound 0.8 µM)	relative viability ([1]; first compound 2.53 µM)	relative viability ([1]; first compound 8 µM)	relative viability ([2]; first compound 0.08 µM)	relative viability ([2]; first compound 0.253 µM)	relative viability ([2]; first compound 0.8 µM)	relative viability ([2]; first compound 2.53 µM)
LCLC-97TM1	0.394	0.399	0.419	0.405	0.418	0.403	0.423	0.364	0.304	0.31	0.168	0.284	0.198	0.2	0.176	0.363	0.435	0.277	0.286
NCI-H1734	0.379	0.362	0.395	0.413	0.406	0.557	0.554	0.616	0.576	0.523	0.46	0.485	0.444	0.477	0.493	0.561	0.792	0.706	0.581
NCI-H661	0.308	0.279	0.288	0.288	0.287	0.743	0.764	0.765	0.748	0.76	0.331	0.425	0.333	0.39	0.349	–	0.99	0.973	0.984
SK-LU-1	0.542	0.502	0.498	0.491	0.477	0.453	0.47	0.442	0.42	0.432	0.426	0.532	0.57	0.61	0.508	0.789	0.897	0.809	0.682
LC-2-ad	0.556	0.526	0.569	0.67	0.599	0.732	0.69	0.832	0.745	0.73	0.42	0.537	0.374	0.473	0.355	–	0.44	0.445	0.484
NCI-H1355	0.439	0.465	0.439	0.419	0.433	0.714	0.669	0.718	0.668	0.619	0.478	0.541	0.416	0.325	0.447	–	1.01	0.995	1.02
NCI-H1793	0.367	0.256	0.311	0.25	0.309	0.786	0.507	0.612	0.414	0.502	0.379	0.352	0.269	0.312	0.242	–	–	–	–
H3255	0.369	0.382	0.326	0.374	0.354	0.508	0.536	0.561	0.547	0.499	0.483	0.514	0.447	0.536	0.467	0.822	0.823	0.804	0.749
NCI-H2342	0.445	0.57	0.583	0.559	0.601	0.424	0.417	0.404	0.466	0.463	–	–	–	–	–	–	–	–	–
NCI-H838	0.607	0.534	0.496	0.471	0.428	0.758	0.717	0.767	0.634	0.553	0.329	0.49	0.367	0.367	0.403	0.672	0.896	0.899	0.731
NCI-H727	0.635	0.621	0.537	0.486	0.51	0.681	0.732	0.545	0.679	0.745	0.376	0.407	0.427	0.353	0.308	0.748	0.782	0.802	0.704
UMC-11	0.322	0.288	0.302	0.349	0.324	0.379	0.503	0.346	0.319	0.338	0.695	0.717	0.855	0.829	0.778	0.544	0.627	0.561	0.218
CAL-12T	0.629	0.55	0.62	0.56	0.661	0.705	0.709	0.72	0.678	0.747	–	0.446	0.359	0.337	0.367	0.623	0.545	0.571	0.618
NCI-H1755	0.584	0.598	0.549	0.585	0.528	0.853	0.843	0.829	0.738	0.68	0.279	0.59	0.381	0.396	0.383	0.786	–	0.893	0.79
NCI-H1651	0.283	0.265	0.437	0.316	0.286	0.183	0.199	0.166	0.161	0.18	0.361	0.61	0.636	0.565	0.568	0.843	0.84	0.88	0.816
NCI-H2170	0.421	0.413	0.464	0.431	0.362	0.625	0.522	0.625	0.526	0.608	0.337	0.304	0.273	0.3	0.358	1.16	1.17	1.16	1.23
NCI-H1915	0.347	0.358	0.359	0.347	0.374	0.241	0.267	0.284	0.232	0.251	0.926	1.05	0.784	0.927	0.884	0.853	0.868	0.882	0.809
EPLC-272H	0.298	0.275	0.291	0.269	0.27	0.786	0.582	0.845	0.483	0.504	–	0.251	0.264	0.299	0.292	–	0.936	0.82	0.622
NCI-H2087	0.425	0.455	0.524	0.472	0.471	0.646	0.66	0.501	0.683	0.598	0.783	0.892	0.956	0.848	0.772	0.891	0.791	0.709	0.688
A-427	0.341	0.297	0.307	0.39	0.326	0.635	0.704	0.714	0.625	0.71	0.577	0.751	0.683	0.75	0.886	0.747	0.869	0.82	0.63

Cell Line	relative viability (TGX 221 + Phenformin; first compound 0.08 µM)	relative viability (TGX 221 + Phenformin; first compound 0.253 µM)	relative viability (TGX 221 + Phenformin; first compound 0.8 µM)	relative viability (TGX 221 + Phenformin; first compound 2.53 µM)	relative viability (TGX 221 + Phenformin; first compound 8 µM)	relative viability (TGX 221 + Olaparib; first compound 0.08 µM)	relative viability (TGX 221 + Olaparib; first compound 0.253 µM)	relative viability (TGX 221 + Olaparib; first compound 0.8 µM)	relative viability (TGX 221 + Olaparib; first compound 2.53 µM)	relative viability (TGX 221 + Olaparib; first compound 8 µM)	relative viability ([1]; first compound 0.08 µM)	relative viability ([1]; first compound 0.253 µM)	relative viability ([1]; first compound 0.8 µM)	relative viability ([1]; first compound 2.53 µM)	relative viability ([1]; first compound 8 µM)	relative viability ([2]; first compound 0.08 µM)	relative viability ([2]; first compound 0.253 µM)	relative viability ([2]; first compound 0.8 µM)	relative viability ([2]; first compound 2.53 µM)
NCI-H460	0.508	0.466	0.53	0.536	0.467	0.4	0.438	0.389	0.405	0.38	0.339	0.325	0.367	0.319	0.333	1.01	0.924	0.84	0.645
EBC-1	–	–	–	–	–	0.664	0.697	0.616	0.676	0.55	0.353	0.429	0.346	0.343	0.368	0.186	0.163	0.164	0.224
NCI-H23	0.814	0.699	0.811	0.836	0.773	0.302	0.287	0.284	0.296	0.294	0.439	0.462	0.563	0.458	0.396	0.534	0.565	0.665	0.445
NCI-H1437	0.315	0.302	0.252	0.269	0.335	0.649	0.589	0.678	0.603	0.632	0.42	0.475	0.39	0.459	0.494	0.825	0.931	0.918	0.765
EKVX	0.213	0.225	0.232	0.22	0.221	0.75	0.758	0.792	0.691	0.709	0.457	0.482	0.376	0.425	0.367	–	0.762	0.958	1.01
NCI-H1299	–	–	–	–	–	0.971	0.952	1.02	1.03	0.943	1.04	0.858	0.826	0.771	0.594	0.928	0.917	0.974	0.891
NCI-H1650	0.419	0.3	0.377	0.382	0.255	0.684	0.704	0.954	0.719	0.642	–	0.855	0.681	0.53	0.501	1.04	0.926	0.714	0.784
HARA	0.563	0.422	0.426	0.424	0.543	0.658	0.917	0.868	0.629	0.711	–	0.668	0.449	0.392	0.442	0.925	0.948	0.926	0.712
ChaGo-K-1	0.479	0.512	0.481	0.456	0.494	0.399	0.387	0.374	0.359	0.426	0.387	0.634	0.554	0.747	0.829	1.13	1.08	1.05	0.997
HCC-366	0.617	0.575	0.642	0.572	0.613	0.331	0.303	0.407	0.344	0.357	0.196	0.154	0.0996	0.174	0.164	0.49	0.464	0.428	0.188
SW 900	0.572	0.455	0.473	0.448	0.525	–	0.787	0.701	0.578	0.562	–	–	–	–	–	–	–	–	–
NCI-H1703	–	–	–	–	–	0.449	0.462	0.389	0.396	0.255	0.236	0.292	0.25	0.259	0.24	0.63	1.02	0.891	0.612
NCI-H522	0.699	0.581	0.597	0.669	0.657	0.563	0.628	0.729	0.616	0.645	–	–	–	–	–	–	–	–	–
NCI-H1623	0.543	0.602	0.62	0.566	0.555	–	–	–	–	–	–	–	–	–	–	–	–	–	–
NCI-H1395	0.398	0.435	0.401	0.436	0.409	0.452	0.438	0.411	0.399	0.393	–	0.533	0.631	0.545	0.643	–	–	–	–
NCI-H1648	–	–	–	–	–	–	0.452	0.802	0.764	0.842	–	–	–	–	–	–	–	–	–
NCI-H1563	0.708	0.618	0.671	0.654	0.597	–	–	–	–	–	0.629	0.655	0.689	0.703	0.637	0.862	0.822	0.732	0.689
Calu-6	–	–	–	–	–	0.55	0.513	0.549	0.536	0.512	0.959	0.967	1.05	0.988	0.812	0.712	0.766	0.638	0.51
IA-LM	–	–	–	–	–	0.866	0.857	0.846	0.858	0.799	0.273	0.452	0.287	0.369	0.238	–	0.763	0.784	0.578
